The text below walks through data of ChEMBL document CHEMBL3232901, “Design, synthesis, and pharmacological evaluation of fluorinated tetrahydrouridine derivatives as inhibitors of cytidine deaminase” (J Med Chem, 2014).

Data set [1] can be described thus: Chemical stability in simulated gastric fluid assessed as compound remaining after 10 mins at pH 1.2 at 37 degC. Type of data set: ADME, physicochemical, Stomach. Particulars: read-out: Stability.
Data set [2] is described as follows: Chemical stability in simulated gastric fluid assessed as compound remaining after 2 hrs at pH 1.2 at 37 degC. It is filed as ADME, physicochemical, Stomach. Particulars: read-out: Stability.

Take `O=C1NC(O)CCN1[C@@H]1O[C@H](CO)[C@@H](O)[C@H]1O` (mixture of isomers) [TETRAHYDROURIDINE]: the remaining at 10 min in data set [1] is 50%. In addition, in data set [2], the remaining at 2 h was 15%.
